The values that follow come from patent US7094909B2, “HIV protease inhibitors, compositions containing the same, their pharmaceutical uses and materials for their synthesis” (priority 2001, dated 2006).

This assay deals with T1, HIV-1 protease (Q7S mutant form) (Human immunodeficiency virus type 1 group M subtype B, UniProt P04585, Q495S).
T1 construct: made in house
Put plainly: HIV-1 Protease RET assay. Type of assay: biochemical. As to conditions: Ki, unit inferred. The protocol:
Ki's for the inhibitors of HIV-1 protease were determined using a resonance energy transfer (RET) assay. […] This enzyme is first partially purified as inclusion bodies from cell lysate. It is then solublized in 8M urea and passed through a Q-Sepharose column (Pharmacia) for further purification. To refold this protein, samples containing Q7S is dialyzed into 50 mM sodium phosphate pH 7.0, 50 mM NaCl, 10 mM DTT, and 10% glycerol.
The commercially available peptide substrate (Molecular Probes Cat. # H-2930) RE(EDANS)SQNYPIVQK(DABCYL)R is used to assess activity and Ki's. This peptide is cleaved quantitatively by HIV-1 Pr at the Tyr-Pro bond. The EDANS fluorophore absorbs at 340 nm and emits at 490 nm. The reaction is carried out in a 96 well plate in a total volume of 100 µL and is run for 12 minutes at 37 C under steady-state conditions with 5 µM substrate and 2 nM active dimer enzyme concentration. The literature value Km for this substrate and enzyme is 103+/−8 µM (See Matayoshi, et al., “Novel Fluorogenic Substrates for Assaying Retroviral Proteases by Resonance Energy Transfer,” Science 247, 954 (1990)). The buffer for this reaction is 0.1M sodium acetate pH 4.8, 1M NaCl, 1 mM EDTA, 5 mM dithiothreitol, 10% dimethyl sulfoxide and 1 mg/ml bovine serum albumin. Inhibition curves are fit using the Morrison tight binding equation.

What is called Ki is the equilibrium dissociation constant of an inhibitor or competing ligand from its target. A low value points to tighter binding. On to `Cc1ccccc1CNC(=O)[C@H]1N(C(=O)[C@@H](O)[C@H](Cc2ccccc2)NC(=O)Oc2ccc(Cl)cc2)CSC1(C)C`, for which the Ki came to 468 nM.

`Cc1ccccc1CNC(=O)[C@H]1N(C(=O)[C@@H](O)[C@H](Cc2ccccc2)NC(=O)Oc2ccccc2)CSC1(C)C` returned a Ki of 368 nM. `Cc1ccccc1CNC(=O)[C@H]1N(C(=O)[C@@H](O)[C@H](Cc2ccccc2)NS(=O)(=O)c2ccccc2)CSC1(C)C` gave a Ki of 152 nM. This Ki is about 2.4-fold lower than that of the compound before.

`CC1(C)SCN(C(=O)[C@@H](O)[C@H](Cc2ccccc2)NC(=O)[C@@H]2CCCO2)[C@@H]1C(=O)NC[C@H]1CCCO1` came in with a Ki of 30 nM. Then `CC1(C)SCN(C(=O)[C@@H](O)[C@H](Cc2ccccc2)NC(=O)c2cccc3c2CCN3)[C@@H]1C(=O)NCc1cccs1`, with 6.8 nM; and `CC1(C)SCN(C(=O)[C@@H](O)[C@H](Cc2ccccc2)NC(=O)CSc2nc[nH]n2)[C@@H]1C(=O)NCc1cccs1`, with 13.9 nM.

Compound `CC(C)(C)OC(=O)N[C@@H](Cc1ccccc1)[C@H](O)C(=O)N1CSC(C)(C)[C@H]1C(=O)NCc1ccccc1` yielded a Ki of 21 nM. Regarding `Cc1ccccc1CNC(=O)[C@H]1N(C(=O)[C@@H](O)[C@H](Cc2ccccc2)NC(=O)COc2cccc3ncccc23)CSC1(C)C`, the affinity, expressed as Ki, was 14.2 nM. The Ki values of the last two compounds are within 1.5-fold of each other. Take `Cc1ccccc1CNC(=O)[C@H]1N(C(=O)[C@@H](O)[C@H](Cc2ccccc2)NC(=O)COc2cccc3cnccc23)CSC1(C)C`: the Ki came to 21 nM. This Ki and that of the compound before are within 1.5-fold of each other. Compound `CC(C)(C)OC(=O)N[C@@H](Cc1ccccc1)[C@H](O)C(=O)N1CSC(C)(C)C1C(=O)NCc1ccccc1Cl` (stereo partly shown) displayed a Ki of 20 nM. Turning to `CC(C)(C)OC(=O)N[C@@H](Cc1ccccc1)[C@H](O)C(=O)N1CSC(C)(C)C1C(=O)NCc1c(F)cccc1F` (stereo partly shown), the Ki came to 54 nM. As for `COc1ccc(CNC(=O)C2N(C(=O)[C@@H](O)[C@H](Cc3ccccc3)NC(=O)OC(C)(C)C)CSC2(C)C)cc1` (stereo partly shown), the figure is 25 nM; as for `Cc1ccccc1CNC(=O)[C@H]1N(C(=O)[C@@H](O)[C@H](Cc2ccccc2)NC(=O)COc2cccnc2Cl)CSC1(C)C`, 7.6 nM. Regarding `Cc1ccccc1CNC(=O)[C@H]1N(C(=O)[C@@H](O)[C@H](Cc2ccccc2)NC(=O)COc2cccnc2C)CSC1(C)C`, the affinity corresponds to a Ki of 17 nM. As for `COc1ccc(CNC(=O)N[C@@H](Cc2ccccc2)[C@H](O)C(=O)N2CSC(C)(C)C2C(=O)NCc2ccc(OC)cc2)cc1` (stereo partly shown), the figure is 7.8 nM; as for `COc1cccc(CNC(=O)[C@H]2N(C(=O)[C@@H](O)[C@H](Cc3ccccc3)NC(=O)C=C(C)C)CSC2(C)C)c1`, 125 nM; as for `CC(C)=CC(=O)N[C@@H](Cc1ccccc1)[C@H](O)C(=O)N1CSC(C)(C)[C@H]1C(=O)NCc1ccccc1C`, 6.1 nM.

The compound `CCc1cccc(CNC(=O)[C@H]2N(C(=O)[C@@H](O)[C@H](Cc3ccccc3)NC(=O)NCc3ccc(OC)cc3)CSC2(C)C)c1` registered a Ki of 59 nM.

In turn, `C#CCOC(=O)N[C@@H](Cc1ccccc1)[C@H](O)C(=O)N1CSC(C)(C)[C@H]1C(=O)NCc1cccc(CC)c1` returned a Ki of 3.8 nM. `COc1cccc(CNC(=O)[C@H]2N(C(=O)[C@@H](O)[C@H](Cc3ccccc3)NC(=O)OC(C)(C)C)CSC2(C)C)c1` showed a Ki of 68 nM. Then `Cc1ccccc1CNC(=O)[C@H]1N(C(=O)[C@@H](O)[C@H](Cc2ccccc2)NC(=O)COc2cc(N(C)C)ccc2C)CSC1(C)C`, with 8.1 nM; and `Cc1ccccc1CNC(=O)C1N(C(=O)[C@@H](O)C(Cc2ccccc2)NC(=O)C(C)(C)C)CSC1(C)C` (stereo partly shown), with 47 nM.

The compound `C/C(=C/c1ccccc1)C(=O)N[C@@H](Cc1ccccc1)[C@H](O)C(=O)N1CSC(C)(C)[C@H]1C(=O)NCc1ccccc1C` yielded a Ki of 5 nM. Then `Cc1ccccc1CNC(=O)C1N(C(=O)[C@@H](O)C(Cc2ccccc2)NC(=O)/C=C/c2c(Cl)cccc2Cl)CSC1(C)C` (stereo partly shown), with 11.9 nM; and `Cc1ccccc1CNC(=O)C1N(C(=O)[C@@H](O)[C@H](Cc2ccccc2)NC(=O)c2ccc3ccncc3c2)CSC1(C)C` (stereo partly shown), with 3.4 nM. The compound `Cc1ccccc1CNC(=O)C1N(C(=O)[C@@H](O)C(Cc2ccccc2)NC(=O)c2cnc3ccccc3c2)CSC1(C)C` (stereo partly shown) displayed a Ki of 18.1 nM. Then `Cc1ccccc1CCC(=O)C1N(C(=O)[C@@H](O)C(Cc2ccccc2)NC(=O)C2CCC2)CSC1(C)C` (stereo partly shown), with 4.4 nM; and `Cc1ccccc1CNC(=O)[C@H]1N(C(=O)[C@@H](O)[C@H](Cc2ccccc2)NC(=O)CNc2ccc(F)cc2)CSC1(C)C`, with 6 nM.

For the compound `Cc1ccccc1CCC(=O)C1N(C(=O)[C@@H](O)C(Cc2ccccc2)NC(=O)NCc2ccc(Cl)cc2)CSC1(C)C` (stereo partly shown), the Ki came out at 8.2 nM. The Ki values of the last two compounds are within 1.5-fold of each other. For the compound `C#CC(C)OC(=O)N[C@@H](Cc1ccccc1)[C@H](O)C(=O)N1CSC(C)(C)[C@H]1C(=O)NCc1ccccc1C` (stereo partly shown), the Ki came out at 5.4 nM. Take `Cc1ccccc1CNC(=O)C1N(C(=O)[C@@H](O)C(Cc2ccccc2)NC(=O)OCc2cccnc2)CSC1(C)C` (stereo partly shown): the affinity, expressed as Ki, was 27 nM. Then `C=CC(CC)OC(=O)N[C@@H](Cc1ccccc1)[C@H](O)C(=O)N1CSC(C)(C)[C@H]1C(=O)NCc1ccccc1C` (stereo partly shown), with 92 nM; and `CC#CC(C)OC(=O)NC(Cc1ccccc1)[C@H](O)C(=O)N1CSC(C)(C)[C@H]1C(=O)NCc1ccccc1C` (stereo partly shown), with 29 nM; and `Cc1c(O)cccc1C(=O)N[C@@H](Cc1ccccc1)[C@H](O)C(=O)N1CSC(C)(C)[C@H]1C(=O)NCc1cc(Cl)nc(Cl)c1`, with 47 nM. As for `Cc1ccccc1CNC(=O)[C@H]1N(C(=O)[C@@H](O)[C@H](Cc2ccccc2)NC(=O)/C=C/c2c(C)cccc2C)CSC1(C)C`, the figure is 99 nM.

The compound `Cc1ccccc1CNC(=O)[C@H]1N(C(=O)[C@@H](O)[C@H](Cc2ccccc2)NC(=O)C2CCNCC2)CSC1(C)C` displayed a Ki of 45 nM. As for `Cc1ccccc1CNC(=O)[C@H]1N(C(=O)[C@@H](O)[C@H](Cc2ccccc2)NC(=O)CC(C)N)CSC1(C)C` (stereo partly shown), the figure is 108 nM. In the case of `Cc1ccccc1CNC(=O)[C@H]1N(C(=O)[C@@H](O)[C@H](Cc2ccccc2)NC(=O)CC(C)NC(=O)OC(C)(C)C)CSC1(C)C` (stereo partly shown), the affinity, expressed as Ki, was 122 nM. Compound `Cc1ccccc1CNC(=O)[C@H]1N(C(=O)[C@@H](O)[C@H](Cc2ccccc2)NC(=O)C2=CCCCC2)CSC1(C)C` returned a Ki of 4.7 nM. Then `C/C=C(/C)C(=O)N[C@@H](Cc1ccccc1)[C@H](O)C(=O)N1CSC(C)(C)[C@H]1C(=O)NCc1ccccc1C`, with 7.6 nM; and `Cc1ccccc1CNC(=O)[C@H]1N(C(=O)[C@@H](O)[C@H](Cc2ccccc2)NC(=O)Cc2c(F)cccc2F)CSC1(C)C`, with 72 nM. For `Cc1ccccc1CNC(=O)[C@H]1N(C(=O)[C@@H](O)[C@H](Cc2ccccc2)NC(=O)C2CCCNC2)CSC1(C)C` (stereo partly shown), affinity was put at a Ki of 11.5 nM. Then `Cc1ccccc1CNC(=O)[C@H]1N(C(=O)[C@@H](O)[C@H](Cc2ccccc2)NC(=O)C2CCCN(C(=O)OC(C)(C)C)C2)CSC1(C)C` (stereo partly shown), with 117 nM; and `Cc1ccccc1CNC(=O)[C@@H]1CSCN1C(=O)[C@@H](O)[C@H](Cc1ccccc1)NC(=O)CCc1c(C)cccc1C`, with 20 nM; and `Cc1ccccc1CNC(=O)[C@@H]1CC(F)(F)CN1C(=O)[C@@H](O)[C@H](Cc1ccccc1)NC(=O)c1cccn1C`, with 59 nM.

The compound `Cc1c(O)cccc1C(=O)N[C@@H](Cc1ccccc1)[C@H](O)C(=O)N1CSC(C)(C)[C@H]1C(=O)NC1(C#N)CC1` returned a Ki of 6.2 nM. As for `Cc1cccc(C)c1CNC(=O)[C@@H]1C[C@@H]2CCCC[C@@H]2CC1C(=O)[C@@H](O)[C@H](Cc1ccccc1)NC(=O)c1cccc(O)c1C` (stereo partly shown), the figure is 83 nM; as for `Cc1ccccc1CNC(=O)[C@@H]1N(C(=O)[C@@H](O)[C@H](Cc2ccccc2)NC(=O)c2cccc(O)c2C)CSC12CCCCC2`, 11 nM. `Cc1ccccc1CNC(=O)[C@H]1N(C(=O)[C@@H](O)[C@H](Cc2ccccc2)NC(=O)/C=C/c2ccco2)CSC1(C)C` registered a Ki of 60 nM. This Ki lies about 5.5-fold higher than the previous one. Then `CCCNC(=O)C1CC(F)(F)CN1C(=O)[C@@H](O)[C@H](Cc1ccccc1)NC(=O)c1cccc(OC(C)=O)c1C` (stereo partly shown), with 85 nM; and `Cc1ccccc1CNC(=O)[C@H]1N(C(=O)[C@@H](O)[C@H](Cc2ccccc2)NC(=O)CNC(=O)OC(C)(C)C)CSC1(C)C`, with 88 nM. Turning to `Cc1ccccc1CNC(=O)[C@H]1N(C(=O)[C@@H](O)[C@H](Cc2ccccc2)NC(=O)/C=C/c2cccnc2)CSC1(C)C`, the Ki came out at 9.9 nM. In the case of `Cc1ccccc1CNC(=O)[C@H]1N(C(=O)[C@@H](O)[C@H](Cc2ccccc2)NC(=O)C(C)CNC(=O)OC(C)(C)C)CSC1(C)C` (stereo partly shown), affinity was put at a Ki of 52 nM. As for `Cc1ccccc1CNC(=O)[C@@H]1N(C(=O)[C@@H](O)[C@H](Cc2ccccc2)NC(=O)c2cccc(O)c2C)CSC12CCC2`, the figure is 30 nM. `Cc1c(C(=O)N[C@@H](Cc2ccccc2)[C@H](O)C(=O)N2CSC(C)(C)[C@H]2C(=O)N[C@@H]2C=CCCC2)ccc(F)c1O` displayed a Ki of 17.3 nM.

For the compound `Cc1c(O)cccc1C(=O)N[C@@H](Cc1ccccc1)[C@H](O)C(=O)C1CCC2(CCCC2)[C@@H]1C(=O)NC1=CCCCC1` (stereo partly shown), the affinity, expressed as Ki, was 53 nM.

Consider `Cc1c(O)cccc1C(=O)N[C@@H](Cc1ccccc1)[C@H](O)C(=O)N1CSC2(CCC2)[C@@H]1C(=O)N[C@@H]1C=CCCC1`, for which the affinity, expressed as Ki, was 12.9 nM. Compared with the last compound, the Ki is about 4.1-fold lower. `Cc1c(O)cccc1C(=O)N[C@@H](Cc1ccccc1)[C@H](O)C(=O)N1CSC(C)(C)C1C(=O)NCCc1ccccn1` (stereo partly shown) gave an inhibitory constant (Ki) of 134 nM.
